Source: article PMC2631127 (Acta Crystallographica Section D: Biological Crystallography, 2008)

Tests used:
[1] = target: T4moF, bacterial oxidoreductase (Ectopseudomonas mendocina, UniProt Q03304); assay: reduction of MRF followed at […] nm, anaerobic; assay type: biochemical; conditions: electron acceptor MRF; 4 nM T4moF; 1 mM NADH
[2] = target: human homolog of mouse Rieske-type ferredoxin (HRF) (Homo sapiens, UniProt Q8TAC1); assay: optical absorption spectrum of purified protein; assay type: binding; conditions: bound as purified
Chain of human homolog of mouse Rieske-type ferredoxin (HRF) (Q8TAC1 2-157 limits assumed): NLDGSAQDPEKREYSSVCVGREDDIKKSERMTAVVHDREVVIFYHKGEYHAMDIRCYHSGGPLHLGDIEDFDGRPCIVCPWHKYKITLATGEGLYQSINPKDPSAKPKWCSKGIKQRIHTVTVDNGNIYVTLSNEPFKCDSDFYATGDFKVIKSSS

Chain of T4moF, bacterial oxidoreductase (Q03304 whole entry): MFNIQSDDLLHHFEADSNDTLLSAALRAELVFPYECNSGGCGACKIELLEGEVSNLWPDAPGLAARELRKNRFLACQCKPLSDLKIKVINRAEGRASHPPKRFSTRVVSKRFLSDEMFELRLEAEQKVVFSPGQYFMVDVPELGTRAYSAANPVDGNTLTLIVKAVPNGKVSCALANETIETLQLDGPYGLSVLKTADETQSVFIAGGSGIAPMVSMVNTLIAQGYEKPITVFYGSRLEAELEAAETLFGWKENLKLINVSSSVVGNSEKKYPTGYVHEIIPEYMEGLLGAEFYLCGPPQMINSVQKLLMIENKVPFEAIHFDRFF

Structure (SMILES) | reduction of MRF followed at 460 nm, anaerobic [1] | optical absorption spectrum of purified protein [2]
NC(=O)C1=CN([C@@H]2O[C@H](COP(=O)(O)OP(=O)(O)OC[C@H]3O[C@@H](n4cnc5c(N)ncnc54)[C@H](O)[C@@H]3O)[C@@H](O)[C@H]2O)C=CC1 [NADH] | measured at multiple MRF concentrations in the presence of saturating NADH | 
[S]1[Fe][S][Fe]1 [[2Fe–2S] cluster] |  | Expression and purification of HRF following the same protocol resulted in similar purity and [2Fe–2S]
